Measurements published in US12516039B2, “N-linked isoquinoline amides as LRRK2 inhibitors, pharmaceutical compositions, and uses thereof” (Merck Sharp & Dohme LLC, priority 2020, dated 2026).

What follows are molecules tested against T1, GST-tagged truncated human mutant G2019S LRRK2 (Homo sapiens, UniProt Q5S007, G2019S) (assay: LRRK2 G2019S Km ATP LanthaScreen assay). Settings: 134 μM ATP (Km ATP), LRRKtide substrate, mean of several tests, read-out: LRRK2 pIC50 (converted).
T1 construct: GST-tagged truncated human mutant G2019S LRRK2; purchased Life Technologies Corporation (Carlsbad, CA)
Type: biochemical
How it was run: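 GST-tagged truncated human LRRK2 G2019S (1.25 nM enzyme solution) was preincubated 15 min with compound, then reacted 90 min at ambient temperature with fluorescein-LRRKtide (400 nM solution) and 134 μM ATP (Km) in Tris pH 8.5. EDTA stop; Tb anti-phospho-LRRKtide TR-FRET (520/495 ratio). IC50 from 4-parameter fits, mean of several runs.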

T1 sequence (Q5S007 970-2527 G2019S limits assumed): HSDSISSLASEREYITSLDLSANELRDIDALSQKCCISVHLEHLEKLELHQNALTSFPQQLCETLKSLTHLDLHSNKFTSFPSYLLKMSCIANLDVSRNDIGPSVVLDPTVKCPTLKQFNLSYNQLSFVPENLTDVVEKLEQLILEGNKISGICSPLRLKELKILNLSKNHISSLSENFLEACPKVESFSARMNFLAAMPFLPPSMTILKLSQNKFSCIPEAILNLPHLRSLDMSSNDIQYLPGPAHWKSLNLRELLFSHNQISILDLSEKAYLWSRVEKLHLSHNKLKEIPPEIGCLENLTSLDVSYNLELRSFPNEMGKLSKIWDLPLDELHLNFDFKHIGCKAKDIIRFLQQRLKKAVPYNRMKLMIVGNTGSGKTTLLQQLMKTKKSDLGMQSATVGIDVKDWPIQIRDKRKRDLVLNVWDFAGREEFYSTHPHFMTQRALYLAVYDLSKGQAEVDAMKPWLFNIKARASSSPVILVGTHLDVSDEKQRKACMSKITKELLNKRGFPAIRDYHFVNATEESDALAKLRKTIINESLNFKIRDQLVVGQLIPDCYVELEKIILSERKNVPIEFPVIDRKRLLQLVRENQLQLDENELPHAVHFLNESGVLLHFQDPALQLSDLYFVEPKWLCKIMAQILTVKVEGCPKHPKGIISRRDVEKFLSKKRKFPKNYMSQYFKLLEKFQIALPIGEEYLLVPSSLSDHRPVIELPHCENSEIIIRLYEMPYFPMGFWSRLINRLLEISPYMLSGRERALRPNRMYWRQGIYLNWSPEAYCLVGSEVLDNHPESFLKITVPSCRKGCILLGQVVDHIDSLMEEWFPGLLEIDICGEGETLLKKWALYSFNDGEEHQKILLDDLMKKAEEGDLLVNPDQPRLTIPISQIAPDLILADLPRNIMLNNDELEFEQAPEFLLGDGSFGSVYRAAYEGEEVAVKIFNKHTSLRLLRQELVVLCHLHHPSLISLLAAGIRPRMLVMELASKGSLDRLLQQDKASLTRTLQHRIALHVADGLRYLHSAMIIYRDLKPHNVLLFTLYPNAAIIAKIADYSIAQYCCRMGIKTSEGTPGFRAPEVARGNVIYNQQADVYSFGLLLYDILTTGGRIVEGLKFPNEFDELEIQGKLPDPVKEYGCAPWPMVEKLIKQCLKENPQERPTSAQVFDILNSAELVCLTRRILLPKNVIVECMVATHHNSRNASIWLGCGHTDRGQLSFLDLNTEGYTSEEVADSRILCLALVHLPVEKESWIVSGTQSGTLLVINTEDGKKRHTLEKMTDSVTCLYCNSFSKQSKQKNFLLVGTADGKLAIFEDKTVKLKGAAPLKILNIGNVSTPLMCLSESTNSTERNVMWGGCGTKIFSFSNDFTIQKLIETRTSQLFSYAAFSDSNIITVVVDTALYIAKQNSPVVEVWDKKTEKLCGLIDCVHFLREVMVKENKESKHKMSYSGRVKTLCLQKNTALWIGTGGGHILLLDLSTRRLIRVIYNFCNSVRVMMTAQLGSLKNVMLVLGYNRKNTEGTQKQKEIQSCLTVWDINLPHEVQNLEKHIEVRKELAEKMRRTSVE

| SMILES | IC50 |
| --- | --- |
| Cc1cc2cnc(NC(=O)C3CC34CCOCC4)cc2cc1N1CCN(C2(C)COCC2O)C[C@@H]1C (single isomer, unassigned) [Ex-15.1, (R or S)-N-(6-((2R or 2S)-4-(4-(3R,4R or 3S,4S)-hydroxy-3-methyltetrahydrofuran-3-yl)-2-methylpiperazin-1-yl)-7-methylisoquinolin-3-yl)-6-oxaspiro[2.5]octane-1-carboxamide] | 4.68 nM |
| CCOC1CC1C(=O)Nc1cc2cc(N3CCN(C4(C)COCC4O)CC3)c(Cl)cc2cn1 (single isomer, unassigned) [Ex-10.12] | 0.0832 nM |
| C[C@H]1CN(c2cc3cc(NC(=O)C4CC45CCOCC5)ncc3cc2Cl)CCN1C1(C)COCC1O (single isomer, unassigned) [Ex-2.20, (R or S)-N-(7-chloro-6-((S or R)-4-((3R,4R, or 3S,4S)-4-hydroxy-3-methyltetrahydrofuran-3-yl)-3-methylpiperazin-1-yl)isoquinolin-3-yl)-6-oxaspiro[2.5]octane-1-carboxamide] | 0.178 nM |
| CCC1C(C(=O)Nc2cc3cc(N4CCN(C5(C)CCOC5)CC4)c(C)cc3cn2)C1c1cnn(C)c1 (single isomer, unassigned) [Ex-10.37, (1R,2R,3R, 1R,2S,3R, 1S,2R,3S, or 1S,2S,3S)-2-ethyl-N-[7-methyl-6-[4-((R or S)-3-methyltetrahydrofuran-3-yl)piperazin-4-ium-1-yl]-3-isoquinolyl]-3-(1-methylpyrazol-4-yl)cyclopropanecarboxamide] | 0.0813 nM |
| Cc1cc2cnc(NC(=O)C3C(C)C3c3cnn(C)c3)cc2cc1N1CCN(C2(C)CCOC2)CC1 (single isomer, unassigned) [Ex-9.12] | 0.0813 nM |
| CCOC1CC2(C1)CC2C(=O)Nc1cc2cc(N3CCN(C4(C)COCC4F)CC3)c(Cl)cc2cn1 (single isomer, unassigned) [Ex-10.23, (1R,2R or 1S,2S)-N-[7-chloro-6-[4-((3R,4R or 3S,4S)-4-fluoro-3-methyl-tetrahydrofuran-3-yl)piperazin-1-yl]-3-isoquinolyl]-5-ethoxy-spiro[2.3]hexane-2-carboxamide] | 0.724 nM |
| CCC1C(C(=O)Nc2cc3cc(N4CCN(C5(C)COCC5F)CC4)c(Cl)cc3cn2)C1c1ccccn1 (single isomer, unassigned) [Ex-10.89, (1R,2R,3R, or 1R,2S,3R, or 1S,2R,3S, or 1S,2S,3S)-N-[7-chloro-6-[4-((3R,4R or 3S,4S)-4-fluoro-3-methyl-tetrahydrofuran-3-yl)piperazin-1-yl]-3-isoquinolyl]-2-ethyl-3-(2-pyridyl)cyclopropanecarboxamide] | 0.0813 nM |
| CC1(N2CCN(c3cc4cc(NC(=O)C5CC56CCC6)ncc4cc3Cl)CC2)COCC1O (single isomer, unassigned) [Ex-1.8, (1R or 1S)-N-(7-chloro-6-(4-((3R,4R or 3S,4S)-4-hydroxy-3-methyltetrahydrofuran-3-yl)piperazin-1-yl)isoquinolin-3-yl)spiro[2.3]hexane-1-carboxamide] | 2.34 nM |
| CC1(N2CCN(c3cc4cc(NC(=O)C5CC56CCCOC6)ncc4cc3Cl)CC2)COCC1O (single isomer, unassigned) [Ex-1.16, (1R,3S, or 1R,3R, or 1S,3S, or 1S,3R)-N-(7-chloro-6-(4-((3R,4R or 3S,4S)-4-hydroxy-3-methyltetrahydrofuran-3-yl)piperazin-1-yl)isoquinolin-3-yl)-5-oxaspiro[2.5]octane-1-carboxamide] | 112 nM |
| CC1(N2CCN(c3cc4cc(NC(=O)C56CC(C5)C6)ncc4cc3Cl)CC2)COCC1O (single isomer, unassigned) [Ex-2.19, N-(7-chloro-6-(4-((3R,4R or 3S,4S)-4-hydroxy-3-methyltetrahydrofuran-3-yl)piperazin-1-yl)isoquinolin-3-yl)bicyclo[1.1.1]pentane-1-carboxamide] | 2.88 nM |
| CC1(N2CCN(c3cc4cc(NC(=O)C5CC56CCC(F)(F)CC6)ncc4cc3Cl)CC2)COCC1O (single isomer, unassigned) [Ex-1.19, (1R or 1S)-N-(7-chloro-6-(4-((3R,4R or 3S,4S)-4-hydroxy-3-methyltetrahydrofuran-3-yl)piperazin-1-yl)isoquinolin-3-yl)-6,6-difluorospiro[2.5]octane-1-carboxamide] | 1.1 nM |
| Cc1cc2cnc(NC(=O)C3C4CCOCC43)cc2cc1N1CCN(C2(C)CCOC2)CC1 (single isomer, unassigned) [Ex-10.46, (1S,6R,7R, 1R,6S,7R, or 1R, 6S,7S, or 1S,6S,7S)-N-(7-methyl-6-(4-((R or S)-3-methyltetrahydrofuran-3-yl)piperazin-1-yl)isoquinolin-3-yl)-3-oxabicyclo[4.1.0]heptane-7-carboxamide] | 0.457 nM |
| Cc1cc2cnc(NC(=O)C3CC34CCOC4)cc2cc1N1CCN(C2(C)COCC2O)CC1 (single isomer, unassigned) [Ex-6.3, (1R, 3S or 1S,3R, or 1R,3S, or 1S,3S)-N-(6-(4-((3R, 4R or 3S,4S)-4-hydroxy-3-methyltetrahydrofuran-3-yl)piperazin-1-yl)-7-methylisoquinolin-3-yl)-5-oxaspiro[2.4]heptane-1-carboxamide] | 0.832 nM |
